Results published in patent US9567301B2, “Pyrrol-1-yl benzoic acid derivatives useful as myc inhibitors” (Whitehead Institute for Biomedical Research, priority 2012, dated 2017).

Experiments:
MM1S cells = test: Cell viability assay (ATPlite), MM1S; type: cell-based, human; details: for EC50: cell viability, three days, ATPlite, NA: inactive under assay conditions
Description: (§1) This assay was used for the H2171 and MM1S cell data shown in Table 2, and for the Jurkat (an immortalized line of human T lymphocyte cells), Ly1 (OCI-Ly1 human non-Hodgkin lymphoma cell line), Ly4 (OCI-Ly4 human non-Hodgkin lymphoma cell line), H2172 (NCI-H2172 human non-small cell lung cancer cell line), and CA-46 (a human Burkitt's lymphoma cell line) cell data shown in Table 3 and FIG. 12. Cells were counted and adjusted to 60,000 cells/mL. Using a Biotek EL406, 50 μL of cells are media were distributed into 384 well white plates from Thermo. Immediately after plating, compound in DMSO was distributed to plates. For large plate sets, cells were returned to 37° C. incubator while not in use.
(§2) Compounds were added to plates using a 100 nL 384 well pin transfer manifold on a Janus workstation. Stocks were arrayed in 10 point quadruplicate dose response in DMSO stock in 384 well Greiner compound plates. After addition of compound, plates were incubated for three days in a 37° C. incubator.
(§3) Cell viability was read out using ATPlite from Perkin Elmer. Plates were removed from the incubator and brought to room temperature prior to use. Lyophilized powder was resuspended in lysis buffer and diluted 1:2 with DI water. 25 μL of this solution was added to each well using the Biotek liquid handler. Plates were sealed with adherent aluminum seals prior to vortexing and spinning down at 1000 g for 1 minute. Plates were incubated for 15 minutes at room temperature before signal was read on an Envision Plate Reader.

c-Myc/Max/Ebox DNA = c-Myc/Max/Ebox DNA (Homo sapiens, UniProt P01106); test: c-Myc/Max/Ebox DNA AlphaScreen assay; type: binding; set-up: An exemplary assay uses full-length human c-Myc and Max proteins; his6 (cleaved yes); made in house; details: c-Myc/Max/Ebox DNA AlphaScreen; NA: inactive under assay conditions; read-out: Biochemical IC50
Description: This protocol was used to generate the biochemical data in Table 2 and FIG. 11. The primary AlphaScreen assay is amenable to 384-well and 1536-well plate formats for HTS. Human his6-c-Myc and his6-Max were used with biotinylated DNA containing a single Ebox sequence (biotin[…]) purchased from MWG Operon. Free c-Myc was generated from his6-c-Myc through thrombin cleavage of the his6 tag. For 384-well plate assays, 10 μL of a 2× solution of free c-Myc (25 nM final), Ni++-coated Acceptor Bead (25 μg/ml final), and biotinylated Ebox oligo (10 nM final) were added to 384-well plates with a Biotek EL406 liquid handler. 100 nL of compounds from stock plates were added by pin transfer using a Janus Workstation (PerkinElmer), allowing the compounds to interact with c-Myc prior to c-Myc binding with Max. In the current assay, DMSO was not allowed to exceed 2% v/v of the assay. 10 μl of 2× master mix containing streptavidin-coated donor beads (25 μg/ml final) and his6-Max (1.25 nM final) were added. AlphaScreen measurements were performed on an Envision 2104 (PerkinElmer) utilizing the manufacturer's protocol. The assay can also be performed in 1536-plate format with 8 μL total volume using two 4 μL additions (instead of […] and 10 μL respectively).
Assays are performed with minor modifications from the manufacturer's protocol (PerkinElmer). Both master mixes were made in room temperature assay buffer (50 mM HEPES, 150 mM NaCl, 0.2% w/v BSA, 0.02% w/v Tween20, 40 μg/ml glycogen, 500 μM DTT, pH 8.0, DTT and glycogen added fresh). Alpha beads were added to respective master solutions and wrapped in foil. All subsequent steps were performed in low light conditions. Solution 1: 2× solution of components with final concentrations of cMyc (25 nM), Ni-coated Acceptor Bead (25 μg/ml), and biotinylated Ebox oligo (10 nM). Solution 2: 2× solution of streptavidin-coated donor beads (25 μg/ml final) and his6-Max (1.25 nM final). […] Solution 1 were added to 384-well plate (AlphaPlate-384, PerkinElmer) with Biotek EL406 liquid handler and the plates were centrifuged at 1000 rpm for 1 minute. 100 nL of compounds from stock plates were added by pin transfer using a Janus Workstation. 10 μL Solution 2 were added with the liquid handler. Plates were sealed with foil to block light exposure and prevent evaporation. Plates were centrifuged at 1000 rpm for 1 minute followed by 2 hour incubation. AlphaScreen measurements were performed on an Envision 2104 utilizing the manufacturer's protocol. Excitation was at 680 nm for donor bead release of singlet oxygen and emission was read with a bandpass filter from 520-620 nm. Glycogen: Roche Diagnostics #10901393001. Plate 1536: Perkin Elmer, 6004350. Plate 384: Perkin Elmer, 6005350. Nickel-His Alpha Beads: 6760619R.

H2171 cells = test: Cell viability assay (ATPlite), H2171; type: cell-based, human; details: cell viability, three days, ATPlite, NA: inactive under assay conditions
Description: as §1, §2, §3

Sequence of c-Myc/Max/Ebox DNA (P01106 16-454): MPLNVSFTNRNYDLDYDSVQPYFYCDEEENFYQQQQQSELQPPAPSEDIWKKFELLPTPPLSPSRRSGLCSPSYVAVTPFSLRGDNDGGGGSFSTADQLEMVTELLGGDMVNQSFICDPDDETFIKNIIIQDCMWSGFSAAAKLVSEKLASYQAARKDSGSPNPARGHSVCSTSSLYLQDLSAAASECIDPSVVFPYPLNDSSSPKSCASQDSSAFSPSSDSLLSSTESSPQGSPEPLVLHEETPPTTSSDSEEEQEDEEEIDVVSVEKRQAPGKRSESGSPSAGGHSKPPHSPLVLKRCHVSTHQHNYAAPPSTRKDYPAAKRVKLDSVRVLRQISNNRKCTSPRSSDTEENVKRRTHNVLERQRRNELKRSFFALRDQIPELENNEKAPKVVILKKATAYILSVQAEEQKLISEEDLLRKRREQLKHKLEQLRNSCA

Row | Structure (SMILES) | EC50 (MM1S cells; Homo sapiens, MM1.S, 72 h) | IC50 (c-Myc/Max/Ebox DNA) | EC50 (H2171 cells; Homo sapiens, NCI-H2171, 72 h) | EC50 (MM1S cells) | EC50 (H2171 cells) | cellular activity/potency in cellular proliferation assay (MM1S cells; MM1.S, prodrug relative to free acid (FIG. 3, FIG. 4))
1 | Cc1ccc(C)n1-c1cc(C(=O)N/N=C/c2cc(F)ccc2C(F)(F)F)ccc1C(=O)O [Compound 91] | 4260 µM | 3.99 µM |  |  |  | 
2 | Cc1ccc(C)n1-c1ccccc1/C=C/C(=O)O [Compound 69] | 39 µM | 156 µM | 115 µM |  |  | 
3 | CC(=O)Nc1ccc(-n2c(C)ccc2C)c(C(=O)O)c1 [Compound 155] | 222 µM | 1.8 µM | 247 µM |  |  | 
4 | Cc1ccc(C)n1-c1ccccc1CC(=O)O [Compound 68] | 340 µM | 195 µM | 52.9 µM |  |  | 
5 | CC(=O)OCOC(=O)c1ccccc1-n1ccnc1C [Compound 151] | 156 µM |  | 43.5 µM |  |  | 
6 | Cc1ccc(C)n1-c1ccc(C(=O)O)c(O)c1 [Compound 127] |  | 53.3 µM |  | 517 µM | 517 µM | 
7 | COC(=O)c1ccccc1-n1c(C)ccc1C [Compound 14] | 223 µM | 97.3 µM | 86.3 µM |  |  | 
8 | Cc1ccc(C)n1-c1cc(C(=O)N/N=C/c2c[nH]c3cc(F)ccc23)ccc1C(=O)O [Compound 96] |  | 34.4 µM | 38.1 µM |  |  | 
9 | Cc1ccc(C)n1-c1cnccc1C(=O)O [Compound 135] | 305 µM | 6800 µM |  |  |  | 
10 | CC(=O)OCOC(=O)c1ccc(C(=O)N/N=C/c2c(CO)cnc(C)c2O)cc1-n1c(C)ccc1C [Compound 111] | 21.8 µM |  | 2.4 µM |  |  | 
11 | CC(=O)OCOC(=O)c1ccc(C(=O)N/N=C/c2ccc(-c3nnn[nH]3)cc2)cc1-n1c(C)ccc1C [Compound 109] | 9.99 µM |  | 1.02 µM |  |  | 
12 | Cc1ccc(C)n1-c1cc(C(=O)NN)ccc1C(=O)O [Compound 142] |  | 7.58 µM |  | 625 µM |  | 
13 | CC(=O)OCOC(=O)c1cccc(/C=N/NC(=O)c2ccc(C(=O)OCOC(C)=O)c(-n3c(C)ccc3C)c2)c1 [acetomoxymethyl ester prodrug] |  |  |  |  |  | increases cellular potency
14 | Cc1ccc(C)n1-c1cccc(C(=O)c2ccccc2)c1C(=O)O [Compound 136] |  | 94.7 µM | 215 µM |  |  | 
15 | COc1ncc(/C=N/NC(=O)c2ccc(C(=O)O)c(-n3c(C)ccc3C)c2)c(OC)n1 [Compound 100] |  | 7.67 µM | 266 µM |  |  | 
16 | Cc1ccc(C)n1-c1cc(C(=O)N/N=C\c2ccc(S(=O)(=O)O)cc2)ccc1C(=O)O [Compound 123] |  | 0.291 µM | 96.4 µM |  |  | 
17 | Cc1ccc(C)n1-c1cc(C(=O)N2CCOCC2)ccc1C(=O)O [Compound 75] |  | 8.58 µM | 114 µM |  |  | 
18 | Cc1ccc(C)n1-c1cc(C(=O)N/N=C/c2ccc3ccccc3n2)ccc1C(=O)O [Compound 90] | 52.5 µM | 17.5 µM |  |  |  | 
19 | Cc1cc(C)c2c(=O)c(/C=N/NC(=O)c3ccc(C(=O)O)c(-n4c(C)ccc4C)c3)coc2c1 [Compound 97] | 1040 µM | 5.55 µM |  |  |  | 
20 | Cc1ccc(C)n1-c1c(C(=O)O)cccc1[N+](=O)[O-] [Compound 132] | 647 µM |  | 310 µM |  |  | 

Second part, led by results:

Row | EC50 (MM1S cells; Homo sapiens, MM1.S, 72 h) | IC50 (c-Myc/Max/Ebox DNA) | EC50 (H2171 cells; Homo sapiens, NCI-H2171, 72 h) | EC50 (MM1S cells) | EC50 (H2171 cells) | Structure (SMILES) | cellular activity/potency in cellular proliferation assay (MM1S cells; MM1.S, prodrug relative to free acid (FIG. 3, FIG. 4))
21 | 261 µM | 103 µM | 48.4 µM |  |  | Cc1ccc(C)n1-c1cc(C(=O)N/N=C/c2ccccc2)ccc1C(=O)O [Compound 71] | 
22 | 208 µM | 81.5 µM | 76.3 µM |  |  | Cc1ccc(C)n1-c1ccc(C(=O)O)c(Cl)c1 [Compound 6] | 
23 | 209 µM |  | 84.1 µM |  |  | CC(=O)OCOC(=O)c1ccccc1N1CCN(C)CC1 [Compound 159] | 
24 | 127 µM |  | 229 µM |  |  | COC(=O)c1ccc(-n2cccc2)cc1O [Compound 9] | 
25 | 71.9 µM | 2480 µM | 22.8 µM |  |  | CC(=O)OCOC(=O)c1ccccc1N1CCOCC1 [Compound 152] | 
26 | 2760 µM | 15.4 µM | 198 µM |  |  | Cc1ccc(C)n1-c1cc(C(=O)NCCc2c[nH]cn2)ccc1C(=O)O [Compound 72] | 
27 | 9.25 µM |  | 1.04 µM |  |  | CC(=O)OCOC(=O)c1ccc(C(=O)N/N=C/c2ccc(S(=O)(=O)O)o2)cc1-n1c(C)ccc1C [Compound 112] | 
28 | 130 µM | 165 µM | 104 µM |  |  | O=C(O)c1ccc(-n2cccc2)cc1O [Compound 16] | 
29 | 450 µM |  |  |  |  | Cc1ccc(C)n1-c1ccccc1C(N)=O [Compound 133] | 
30 |  |  |  | 446 µM |  | CC(=O)OCOC(=O)c1ccc(-n2c(C)ccc2C)cc1O [Compound 144] | 
31 |  |  |  | 11 µM | 2.8 µM | CC(=O)OCOC(=O)c1ccc(-n2c(C)ccc2C)cc1O [Compound 113] | 
32 | 11.7 µM |  | 1.21 µM |  |  | CC(=O)OCOC(=O)c1cccc(/C=N/NC(=O)c2ccc(C(=O)OCOC(C)=O)c(-n3c(C)ccc3C)c2)c1 [Compound 114] | 
33 | 98.5 µM | 155 µM |  |  |  | Cc1ccc(C)n1-c1ccc(C(=O)O)c([N+](=O)[O-])c1 [Compound 163] | 
34 | 263 µM | 5.56 µM |  |  |  | Cc1ccc(C)n1-c1cc(C(=O)N/N=C/c2cncnc2)ccc1C(=O)O [Compound 93] | 
35 |  | 0.492 µM | 174 µM |  |  | Cc1ccc(C)n1-c1cc(C(=O)N/N=C\c2ccc(C(=O)O)s2)ccc1C(=O)O [Compound 122] | 
36 | 148 µM |  | 268 µM |  |  | O=C(O)c1ccccc1-n1c2ccccc2c2ccccc21 [Compound 141] | 
37 | 118 µM | 2.97 µM |  |  |  | Cc1ccc(C)n1-c1cc(C(=O)N/N=C/c2ccc3cccnc3n2)ccc1C(=O)O [Compound 105] | 
38 | 8080 µM | 4.88 µM |  |  |  | Cc1ccc(C)n1-c1cc(C(=O)N/N=C/c2c(Cl)ncnc2Cl)ccc1C(=O)O [Compound 88] | 
39 | 86.5 µM | 31.4 µM |  |  |  | Cc1ccc(C)n1-c1cc(C(=O)N/N=C/c2ccc(N(C)C)cc2)ccc1C(=O)O [Compound 87] | 
40 |  | 15.1 µM | 144 µM |  |  | Cc1ccc(C)n1-c1cc(C(=O)N/N=C/c2cccc3ncccc23)ccc1C(=O)O [Compound 106] | 
41 | 3570 µM |  | 67.9 µM |  |  | CC(=O)Oc1cc(-n2c(C)ccc2C)ccc1C(=O)O [Compound 66] | 
42 | 13.6 µM |  | 0.913 µM |  |  | CC(=O)OCOC(=O)c1ccc(C(=O)N/N=C/c2ccc3cccnc3n2)cc1-n1c(C)ccc1C [Compound 115] | 
43 | 11000 µM |  |  |  |  | Cc1ccc(C)n1-c1cc(C(=O)O)ccc1C(=O)O [Compound 157] | 
44 |  | 2.72 µM | 106 µM |  |  | Cc1ccc(C)n1-c1cc(C(=O)N/N=C/c2ncc[nH]2)ccc1C(=O)O [Compound 81] | 
45 | 194 µM |  | 270 µM |  |  | Cc1c(C)c(C)n(-c2ccccc2C(=O)O)c1C [Compound 138] | 
46 |  | 11.5 µM | 170 µM |  |  | Cc1ccc(C)n1-c1ccc(Cl)cc1C(=O)O [Compound 147] | 
47 |  | 45.8 µM | 60.6 µM |  |  | Cc1cc(C(=O)O)ccc1-n1c(C)ccc1C [Compound 11] | 
48 |  | 9.3 µM | 32.3 µM |  |  | Cc1ccc(C)n1-c1cc(C(=O)N/N=C/c2cc(F)c(F)c(F)c2)ccc1C(=O)O [Compound 107] | 
